This is an account of results in patent US6265578A, “Pyrimidine-2,4,6-triones” (Hoffmann-La Roche Inc., priority 2000, dated 2001).

As usually defined, the IC50 is the concentration that gives 50% inhibition.

What all share (type): biochemical
The subject of experiment [1] is human stromelysin-1 (catalytic domain). The experiment is described as follows: IC50 for inhibition of the catalytic domain of human stromelysin-1, fluorogenic substrate assay (Strom-1). The note with it: pH 6.5, ambient temperature, 60 min, 10 μM substrate, 10 nM enzyme. The method, then:
(§1) Human 72 kDa gelatinase was purified from the conditioned media of fetal lung fibroblasts according to known methods. The enzyme was stored in the pro-form at -80° C. and activated prior to use by treatment with 1 mM aminophenyl mercuriacetate (APMA) for 1 hour at 37° C., then dialyzed against reaction buffer before use. Human neutrophil gelatinase (95 kDa gelatinase) was purified from conditioned media of NSO-cells according to known methods. This enzyme was likewise stored in the zymogen form at -80° C. It was activated by treatment with trypsin (5 μg/mL) for 1 hour at 37° C., followed by addition of bovine pancreatic trypsin inhibitor to 50 μg/mL. Human matrilysin was obtained from a bacterial expression system as a ubiquitin fusion construct Welch, A. R., Holman, C. M., Browner, M. F., Gehring, M. R., Kan, C.-C., & Van Wart, H. E. (1995) Arch. Biochem. Biophys. 324, 59-64. The mature form of matrilysin was purified following activation with 1 mM APMA (1 hour, 37° C.) and the active enzyme stored at -80° C. The catalytic domain of human collagenase-3 was obtained in a manner analogous to that for matrilysin. The final form of collagenase-3 used for these studies consisted of the residues Tyr104 -Asn274 from the full length collagenase sequence. The catalytic domain of human stromelysin-1 was produced via E. coli expression and purification according to known methods; the activated, catalytic domain was stored at -80° C.
The assay methods utilized the fluorogenic substrate: Dnp-Pro-Cha-Gly-Cys(Me)-His-Ala-Lys(NMA)-NH2. […]
Measurements for stromelysin-1: the catalytic domain of stromelysin-1 was tested using the same substrate but with a modified protocol. […] The reaction was started by addition of an aliquot of enzyme stock and the generated fluorescence was read directly after 60 minutes. […] The % inh[I] was calculated as: […]
where Fluor[I]=corrected fluorescence at 60 minutes observed for inhibitor concentration [I]
FluorPC=corrected fluorescence at 60 minutes observed for the positive control […]

In experiment [2] the target is T1, human collagenase-3 (catalytic domain) (Homo sapiens, UniProt P45452).
T1 construct: ubiquitin (cleaved yes); made in house; host or cells: bacterial expression system (analogous to matrilysin)
In words: IC50 for inhibition of the catalytic domain of human collagenase-3, fluorogenic peptide cleavage assay (Coll-3).
Experimental: Human matrilysin was obtained from a bacterial expression system as a ubiquitin fusion construct Welch, A. R., Holman, C. […] The mature form of matrilysin was purified following activation with 1 mM APMA (1 hour, 37° C.) and the active enzyme stored at -80° C. The catalytic domain of human collagenase-3 was obtained in a manner analogous to that for matrilysin. The final form of collagenase-3 used for these studies consisted of the residues Tyr104 -Asn274 from the full length collagenase sequence.
For matrilysin and the catalytic domain of collagenase-3, the buffer composition was pH 7.5, 50 mM Hepes, 200 mM NaCl, 5 mM CaCl2, 20 μM ZnCl2, 0.05% (wt/v) Brij-35. The final substrate concentration in all cases 10 μM. The approximate concentrations for the enzymes were: gelatinase-A, 0.8 nM; gelatinase-B, 0.5 nM; collagenase-3, 0.4 nM; matrilysin, 10 nM. To perform the peptide cleavage assay, the vessel containing buffer and compound of formula I were pre-equilibrated at 37° C., then the reaction initiated by successive addition of concentrated stocks of enzyme and substrate, and incubation at 37° C. was continued. At successive time points between 30 and 120 minutes, 50 μL aliquots of the assays were pulled and the enzymatic reaction stopped by addition to 150 μL of 30 mM EDTA (pH 7.4) in the well of a black, flat bottom microtiter plate.
% inh[I]=100(1-rate[I]/ratePC)
(§2) % inh[I]=percent inhibition at inhibitor concentration [I]
(§3) rate[I]=rate at inhibitor concentration [I]
ratePC=rate of positive control […]

In experiment [3] the target is T2, gelatinase-A (human 72 kDa gelatinase) (Homo sapiens, UniProt P08253).
T2 construct: endogenous in cells; host or cells: fetal lung fibroblasts (purified from conditioned media)
T2 sequence (P08253 110-660): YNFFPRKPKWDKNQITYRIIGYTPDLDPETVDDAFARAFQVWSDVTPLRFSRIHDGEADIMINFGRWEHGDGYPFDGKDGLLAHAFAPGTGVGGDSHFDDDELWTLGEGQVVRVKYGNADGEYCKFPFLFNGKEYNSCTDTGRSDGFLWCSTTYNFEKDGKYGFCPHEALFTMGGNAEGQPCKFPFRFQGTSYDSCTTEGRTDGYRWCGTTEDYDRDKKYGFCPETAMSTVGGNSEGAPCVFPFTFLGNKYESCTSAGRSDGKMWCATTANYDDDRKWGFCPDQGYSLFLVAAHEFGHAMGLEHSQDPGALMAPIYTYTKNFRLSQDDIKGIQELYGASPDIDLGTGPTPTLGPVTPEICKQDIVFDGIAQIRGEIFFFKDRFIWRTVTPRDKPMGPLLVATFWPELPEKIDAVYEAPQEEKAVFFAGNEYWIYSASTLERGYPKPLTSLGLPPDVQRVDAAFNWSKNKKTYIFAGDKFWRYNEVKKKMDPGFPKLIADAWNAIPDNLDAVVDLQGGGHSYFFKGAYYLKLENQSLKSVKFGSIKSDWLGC
The experiment is described as follows: IC50 for inhibition of gelatinase-A (human 72 kDa gelatinase), fluorogenic peptide cleavage assay (GelA). As for the experimental part: as §1
The assay methods utilized the fluorogenic substrate: Dnp-Pro-Cha-Gly-Cys(Me)-His-Ala-Lys(NMA)-NH2. (Dnp=dinitro phenyl; Cha=cyclohexylalanine; Cys(Me)=S-methyl cysteine, Lys(NMA)=N^ε-methyl-anthranoyl-1-lysine). Stock solutions were prepared in DMSO. Stock solutions of compounds of formula I (inhibitor) were also prepared in DMSO.
For gelatinase-A and gelatinase-B, the buffer was pH 7.5, 50 mM TrisHCl, 200 mM NaCl, 5 mM CaCl2, 20 μM ZnCl2, 0.05% (wt/v) Brij-35. For matrilysin and the catalytic domain of collagenase-3, the buffer composition was pH 7.5, 50 mM Hepes, 200 mM NaCl, 5 mM CaCl2, 20 μM ZnCl2, 0.05% (wt/v) Brij-35. The final substrate concentration in all cases 10 μM. The approximate concentrations for the enzymes were: gelatinase-A, 0.8 nM; gelatinase-B, 0.5 nM; collagenase-3, 0.4 nM; matrilysin, 10 nM. […] The extent of substrate conversion was determined by reading the fluorescence of the stopped reactions (excitation wavelength: 355 nm; emission wavelength: […]).
A rate at each inhibitor concentration was obtained from a linear least squares fit to the fluorescence time course. The percent inhibition at inhibitor concentration [I] was calculated as: […]

Experiment [4] deals with T3, gelatinase-B (human neutrophil gelatinase, 95 kDa gelatinase) (Homo sapiens, UniProt P14780).
T3 construct: made in house; host or cells: NSO-cells (purified from conditioned media)
T3 sequence (P14780 107-707 limits assumed): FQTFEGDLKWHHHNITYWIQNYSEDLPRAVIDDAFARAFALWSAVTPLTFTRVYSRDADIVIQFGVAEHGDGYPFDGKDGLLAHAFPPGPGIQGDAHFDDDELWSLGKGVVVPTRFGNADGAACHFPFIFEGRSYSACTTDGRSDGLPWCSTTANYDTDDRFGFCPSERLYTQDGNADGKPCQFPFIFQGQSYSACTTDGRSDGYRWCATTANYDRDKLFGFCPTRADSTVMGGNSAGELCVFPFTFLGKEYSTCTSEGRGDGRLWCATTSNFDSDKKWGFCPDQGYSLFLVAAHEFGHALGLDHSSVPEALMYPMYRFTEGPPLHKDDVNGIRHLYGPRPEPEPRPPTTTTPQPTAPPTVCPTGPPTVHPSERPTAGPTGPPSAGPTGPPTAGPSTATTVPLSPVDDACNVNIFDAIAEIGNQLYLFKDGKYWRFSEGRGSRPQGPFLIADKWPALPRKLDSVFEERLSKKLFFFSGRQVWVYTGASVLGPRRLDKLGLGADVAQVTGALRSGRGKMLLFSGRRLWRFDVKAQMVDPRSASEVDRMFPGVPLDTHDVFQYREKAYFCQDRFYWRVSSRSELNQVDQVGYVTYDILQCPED
The experiment is described as follows: IC50 for inhibition of gelatinase-B (human neutrophil gelatinase, 95 kDa), fluorogenic peptide cleavage assay (GelB).
Experimental: For gelatinase-A and gelatinase-B, the buffer was pH 7.5, 50 mM TrisHCl, 200 mM NaCl, 5 mM CaCl2, 20 μM ZnCl2, 0.05% (wt/v) Brij-35. […] The final substrate concentration in all cases 10 μM. The approximate concentrations for the enzymes were: gelatinase-A, 0.8 nM; gelatinase-B, 0.5 nM; collagenase-3, 0.4 nM; matrilysin, 10 nM. To perform the peptide cleavage assay, the vessel containing buffer and compound of formula I were pre-equilibrated at 37° C., then the reaction initiated by successive addition of concentrated stocks of enzyme and substrate, and incubation at 37° C. was continued. At successive time points between 30 and 120 minutes, 50 μL aliquots of the assays were pulled and the enzymatic reaction stopped by addition to 150 μL of 30 mM EDTA (pH 7.4) in the well of a black, flat bottom microtiter plate. The extent of substrate conversion was determined by reading the fluorescence of the stopped reactions (excitation wavelength: 355 nm; emission wavelength: 460 nM).
% inh[I]=100(1-rate[I]/ratePC)
as §2, §3
ratePC=rate of positive control […]

[5] abbreviates: catalytic domain, pH 7.5, 37° C., 10 μM substrate, 0.4 nM enzyme, 5% DMSO, read-out: IC50 Coll-3.

Like-named read-outs stand apart in the source and are kept apart here.

Take `O=C1NC(=O)C(COCc2ccccc2)(c2ccc(Oc3ccccc3)cc2)C(=O)N1` [C, 5-benzyloxymethyl-5-(4-phenoxyphenyl)pyrimidine-2,4,6-trione]: the IC50 in experiment [1] (value in nM) was determined as 930 nM; in experiment [2], 47 nM; in experiment [3], 26 nM; in experiment [4], 23 nM.

Regarding `CCCCCCC1(c2ccc(Oc3ccccc3)cc2)C(=O)NC(=O)NC1=O` [B, 5-hexyl-5-(4-phenoxyphenyl)pyrimidine-2,4,6-trione], the IC50 in experiment [1] is 2000 nM; in experiment [2] (setting [5]), 78 nM; in experiment [3] it was 67 nM; in experiment [4] it was 50 nM.

In the case of `O=C1NC(=O)C(CCO)(c2ccc(Oc3ccccc3)cc2)C(=O)N1` [D, 5-(2-hydroxyethyl)-5-(4-phenoxyphenyl)pyrimidine-2,4,6-trione], the IC50 in experiment [3] (pH 7.5, 37° C., 10 μM substrate, 0.8 nM enzyme, 5% DMSO, read-out: IC50 GelA) was determined as 59 nM.

With `CC1(c2ccc(Oc3ccccc3)cc2)C(=O)NC(=O)NC1=O` [A, 5-methyl-5-(4-phenoxyphenyl)pyrimidine-2,4,6-trione], the IC50 in experiment [1] is 2000 nM; in experiment [2] (setting [5]) it was 65 nM; in experiment [3], 80 nM; in experiment [4] (pH 7.5, 37° C., 10 μM substrate, 0.5 nM enzyme, 5% DMSO, read-out: IC50 GelB), 52 nM.
